These are literature values, as cited in patent US20100285114A1, “PHARMACEUTICAL COMPOSITIONS OF RHEIN OR DIACEREIN” (priority 2007, published 2010).

Molecules are shown by their SMILES. Counter-ions that a name gives are not always drawn.

The conditions of data set [1]: in vivo.

With `CC(=O)Oc1cccc2c1C(=O)c1c(OC(C)=O)cc(C(=O)O)cc1C2=O` [potassium salt of diacerein], the solubility in water result (disclosed in EP 243,968) was “water-soluble”.
In the case of `CC(=O)Oc1cccc2c1C(=O)c1c(OC(C)=O)cc(C(=O)O)cc1C2=O` [diacerein, 4,5-bis (acetyloxy) 9,10-dihydro-4,5-dihydroxy-9,10-dioxo-2-anthracenecarboxylic acid], the “soft stool effect expected due to inherent pharmacokinetic property (enterohepatic circulation)” value in data set [1] is 30-40%. For the same compound, the solubility result (in water, alcohols, acetone, dichloromethane and chloroform) was “practically insoluble”.
